Reference: patent US20240352021A1 (DANA-FARBER CANCER INSTITUTE, INC., priority 2021, published 2024)

Assays:
EGFR L858R = EGFR L858R (Homo sapiens, UniProt P00533, L858R); assay: EGFR biochemical assay (headed HTRF-based; method describes Z'-LYTE), L858R; conditions: Table 4
Experimental: (§1) To measure the IC50 values of compounds herein against EGFR, a Z′-LYTE assay (ThermoFisher) was used. Briefly, 2.5 μL of different concentrations of the compounds in 4% DMSO were added to 5 μL kinase/peptide mixture in each well of a 384-well plate (Corning Cat. #3676). 2.5 μL of 4× ATP solution (4× ATP, 50 mM HEPES, pH 7.5, 0.01% BRIJ-35, 10 mM MgCl2, 1 mM EGTA) were added to each well. The plate was shaken for 30 seconds, and then incubated at room temperature for 60 minutes. 5 μL of a 1:100000 dilution of Development Reagent A was added to each well. The plate was then incubated for 60 mins at room temperature. 5 μL of the stop reagent was then added. The plate was subsequently read on a fluorescence plate reader, and the emissions ratio was calculated to determine the ratio of Ser/Thr 07 phosphorylated by the reaction. Emissions Ratio═Coumarin Emission (443 nm)/Flourescein Emission (520 nm).
(§2) HTRF-based EGFR assay data are provided below in Table 4.

EGFR L858R/T790M = EGFR L858R/T790M (Homo sapiens, UniProt P00533, L858R/T790M); assay: EGFR biochemical assay (headed HTRF-based; method describes Z'-LYTE), L858R/T790M; conditions: Table 4
Chain of EGFR L858R/T790M (P00533 25-1210 T790M/L858R): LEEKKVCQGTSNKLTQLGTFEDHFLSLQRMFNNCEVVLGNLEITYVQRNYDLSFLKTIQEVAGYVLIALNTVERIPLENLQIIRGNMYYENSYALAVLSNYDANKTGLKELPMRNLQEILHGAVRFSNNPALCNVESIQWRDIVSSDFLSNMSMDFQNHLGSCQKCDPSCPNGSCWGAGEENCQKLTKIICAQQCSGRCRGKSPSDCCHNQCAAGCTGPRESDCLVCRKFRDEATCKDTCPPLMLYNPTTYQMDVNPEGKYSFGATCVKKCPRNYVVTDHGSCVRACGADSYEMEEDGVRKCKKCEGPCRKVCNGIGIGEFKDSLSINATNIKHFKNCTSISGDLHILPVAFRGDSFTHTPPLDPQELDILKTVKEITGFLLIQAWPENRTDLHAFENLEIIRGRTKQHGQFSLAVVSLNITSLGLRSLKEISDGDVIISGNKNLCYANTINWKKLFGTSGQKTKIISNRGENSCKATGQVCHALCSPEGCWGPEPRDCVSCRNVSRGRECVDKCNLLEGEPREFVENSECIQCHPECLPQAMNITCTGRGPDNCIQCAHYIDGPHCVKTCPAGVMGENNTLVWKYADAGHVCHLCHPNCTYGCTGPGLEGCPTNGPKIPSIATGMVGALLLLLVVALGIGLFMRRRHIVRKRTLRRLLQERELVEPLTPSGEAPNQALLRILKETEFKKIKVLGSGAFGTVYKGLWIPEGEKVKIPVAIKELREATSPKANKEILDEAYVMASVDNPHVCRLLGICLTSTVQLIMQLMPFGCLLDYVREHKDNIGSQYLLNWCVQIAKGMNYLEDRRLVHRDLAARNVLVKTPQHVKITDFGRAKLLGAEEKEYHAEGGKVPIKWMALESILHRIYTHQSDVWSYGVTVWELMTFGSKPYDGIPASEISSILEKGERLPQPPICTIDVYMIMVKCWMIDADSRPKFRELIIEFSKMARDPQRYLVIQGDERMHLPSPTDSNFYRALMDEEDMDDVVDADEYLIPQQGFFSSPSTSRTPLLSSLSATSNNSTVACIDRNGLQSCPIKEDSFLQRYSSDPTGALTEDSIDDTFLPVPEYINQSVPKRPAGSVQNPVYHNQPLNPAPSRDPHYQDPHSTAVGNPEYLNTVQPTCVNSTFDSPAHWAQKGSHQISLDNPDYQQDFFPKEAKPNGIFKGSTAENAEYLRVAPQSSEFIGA
Experimental: as §1, §2

[1] = target: EGFR mutant L858R Ba/F3 cells (Homo sapiens, UniProt P00533, L858R, cells depend on it); assay: Ba/F3 cell proliferation (Cell Titer Glo), EGFR L858R; format: cell-based, murine; conditions: 72 hours, Table 6, read-out: L858R BaF3
Chain of EGFR mutant L858R Ba/F3 cells (P00533 whole entry L858R, the tested form may be a part): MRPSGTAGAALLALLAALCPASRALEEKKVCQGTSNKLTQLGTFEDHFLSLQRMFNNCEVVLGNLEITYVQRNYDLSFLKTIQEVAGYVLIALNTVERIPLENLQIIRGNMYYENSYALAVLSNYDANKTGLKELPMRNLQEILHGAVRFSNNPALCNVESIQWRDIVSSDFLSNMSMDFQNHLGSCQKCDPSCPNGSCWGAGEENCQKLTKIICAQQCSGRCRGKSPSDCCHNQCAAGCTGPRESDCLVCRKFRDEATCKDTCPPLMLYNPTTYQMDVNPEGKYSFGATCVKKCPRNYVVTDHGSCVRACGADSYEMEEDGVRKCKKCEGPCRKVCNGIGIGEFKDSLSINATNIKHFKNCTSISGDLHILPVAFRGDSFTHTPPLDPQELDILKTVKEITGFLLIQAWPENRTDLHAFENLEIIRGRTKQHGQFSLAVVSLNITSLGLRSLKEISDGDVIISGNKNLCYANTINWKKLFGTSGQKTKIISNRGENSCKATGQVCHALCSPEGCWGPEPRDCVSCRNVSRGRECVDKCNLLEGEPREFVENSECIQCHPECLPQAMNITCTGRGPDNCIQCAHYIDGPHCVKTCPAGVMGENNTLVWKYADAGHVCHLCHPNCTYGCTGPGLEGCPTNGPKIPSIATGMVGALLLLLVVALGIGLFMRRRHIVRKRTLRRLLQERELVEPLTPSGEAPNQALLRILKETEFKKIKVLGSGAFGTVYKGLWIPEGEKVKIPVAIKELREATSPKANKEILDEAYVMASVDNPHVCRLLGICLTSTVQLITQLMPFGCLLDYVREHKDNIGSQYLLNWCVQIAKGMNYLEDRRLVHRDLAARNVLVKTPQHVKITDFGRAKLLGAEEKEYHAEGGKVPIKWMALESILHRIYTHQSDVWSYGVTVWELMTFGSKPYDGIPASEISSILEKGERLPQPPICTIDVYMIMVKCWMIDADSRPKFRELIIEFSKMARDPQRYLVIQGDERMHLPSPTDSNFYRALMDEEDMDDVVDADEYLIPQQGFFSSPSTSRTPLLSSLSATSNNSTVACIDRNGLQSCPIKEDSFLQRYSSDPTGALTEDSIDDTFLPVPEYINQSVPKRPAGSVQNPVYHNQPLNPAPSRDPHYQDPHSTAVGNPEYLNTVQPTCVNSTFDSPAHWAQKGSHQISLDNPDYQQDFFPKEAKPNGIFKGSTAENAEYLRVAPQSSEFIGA
Text: (§3) The EGFR mutant L858R Ba/F3 cells have been previously described (Zhou, W., et al. Nature 462, 2009, 1070-1074). The EGFR C797S and C775S mutations were introduced via site directed mutagenesis using the Quick Change Site-Directed Mutagenesis kit into a vector containing EGFR L858R mutation (Stratagene; La Jolla, CA) according to the manufacturer's instructions. All constructs were confirmed by DNA sequencing. The constructs were then shuttled into the retroviral vector JP1540 by either using the Cre-recombination system (Agilent Technologies, Santa Clara, CA) or the In-fusion HD Cloning kit (Takara Bio USA, Inc.; Mountain view, CA). Ba/F3 cells were then infected with retrovirus per standard protocols, as described previously (Zhou, et al, Nature 2009). Stable clones were obtained by selection in puromycin (2 μg/ml). All BaF/3 mutant cells were maintained in RPMI 1640 (Cellgro; Mediatech Inc., Herndon, CA) supplemented with 10% FBS, 100 units/mL penicillin, 100 units/mL streptomycin.
(§4) Growth and inhibition of growth was assessed by the Cell Titer Glo assay (Promega, Madison, WI) and was performed according to the manufacturer's instructions. The Cell Titer Glo assay is a luminescence-based method used to determine the number of viable cells based on quantitation of the ATP present, which is directly proportional to the amount of metabolically active cells present. Ba/F3 cells of different EGFR genotypes were exposed to compounds for 72 hours and the number of cells used per experiment was determined empirically as has been previously established (Zhou, et al., Nature 2009). All experimental points were set up in triplicates in 384-well plates. […] The curves were fitted using a non-linear regression model with a sigmoidal dose response.
(§5) Ba/F3 cells assay data are provided below in Table 5 and Table 6. For inhibitory activity against EGFR mutants, the following designations are used: <0.1 μM=A, 0.1 μM˜0.5 μM=B, 0.5 μM˜2.5 μM=C, ≥2.5 μM=D

[2] = target: EGFR L858R/C797S Ba/F3 cells (Homo sapiens, UniProt P00533, C797S/L858R, cells depend on it); assay: Ba/F3 cell proliferation (Cell Titer Glo), EGFR L858R/C797S; format: cell-based, murine; conditions: 72 hours, Table 6
Chain of EGFR L858R/C797S Ba/F3 cells (P00533 whole entry C797S/L858R): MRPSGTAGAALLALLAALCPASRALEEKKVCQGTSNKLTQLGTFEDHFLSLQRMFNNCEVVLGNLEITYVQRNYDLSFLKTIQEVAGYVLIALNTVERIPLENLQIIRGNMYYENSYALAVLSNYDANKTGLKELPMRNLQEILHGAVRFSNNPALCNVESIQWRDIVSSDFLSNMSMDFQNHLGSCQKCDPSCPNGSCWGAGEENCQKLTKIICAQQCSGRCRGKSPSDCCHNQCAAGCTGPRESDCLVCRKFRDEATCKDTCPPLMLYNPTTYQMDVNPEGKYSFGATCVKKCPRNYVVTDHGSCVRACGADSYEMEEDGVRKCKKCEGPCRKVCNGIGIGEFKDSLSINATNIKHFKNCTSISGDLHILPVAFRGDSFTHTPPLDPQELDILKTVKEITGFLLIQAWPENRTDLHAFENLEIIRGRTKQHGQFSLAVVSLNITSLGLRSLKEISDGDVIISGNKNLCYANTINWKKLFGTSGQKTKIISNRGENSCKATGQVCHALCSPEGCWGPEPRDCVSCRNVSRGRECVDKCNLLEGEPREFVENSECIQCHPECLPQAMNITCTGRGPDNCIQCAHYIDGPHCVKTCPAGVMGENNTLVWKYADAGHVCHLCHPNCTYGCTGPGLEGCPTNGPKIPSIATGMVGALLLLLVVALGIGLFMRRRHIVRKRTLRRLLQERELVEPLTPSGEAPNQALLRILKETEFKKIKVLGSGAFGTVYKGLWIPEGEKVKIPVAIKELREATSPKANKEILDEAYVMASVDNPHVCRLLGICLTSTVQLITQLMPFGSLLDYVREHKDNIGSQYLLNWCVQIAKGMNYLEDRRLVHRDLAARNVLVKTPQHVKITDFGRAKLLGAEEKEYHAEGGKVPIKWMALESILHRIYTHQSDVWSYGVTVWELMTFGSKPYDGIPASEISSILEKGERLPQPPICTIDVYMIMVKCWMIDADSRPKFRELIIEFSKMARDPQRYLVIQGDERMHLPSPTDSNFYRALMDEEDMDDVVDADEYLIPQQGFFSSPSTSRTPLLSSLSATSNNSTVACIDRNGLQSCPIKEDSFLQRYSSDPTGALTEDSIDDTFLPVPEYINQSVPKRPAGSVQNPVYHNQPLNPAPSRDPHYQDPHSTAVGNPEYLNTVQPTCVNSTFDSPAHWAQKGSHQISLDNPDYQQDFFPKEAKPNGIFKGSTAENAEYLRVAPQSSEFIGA
Text: as §3, §4, §5

Chain of EGFR L858R (P00533 25-1210 L858R): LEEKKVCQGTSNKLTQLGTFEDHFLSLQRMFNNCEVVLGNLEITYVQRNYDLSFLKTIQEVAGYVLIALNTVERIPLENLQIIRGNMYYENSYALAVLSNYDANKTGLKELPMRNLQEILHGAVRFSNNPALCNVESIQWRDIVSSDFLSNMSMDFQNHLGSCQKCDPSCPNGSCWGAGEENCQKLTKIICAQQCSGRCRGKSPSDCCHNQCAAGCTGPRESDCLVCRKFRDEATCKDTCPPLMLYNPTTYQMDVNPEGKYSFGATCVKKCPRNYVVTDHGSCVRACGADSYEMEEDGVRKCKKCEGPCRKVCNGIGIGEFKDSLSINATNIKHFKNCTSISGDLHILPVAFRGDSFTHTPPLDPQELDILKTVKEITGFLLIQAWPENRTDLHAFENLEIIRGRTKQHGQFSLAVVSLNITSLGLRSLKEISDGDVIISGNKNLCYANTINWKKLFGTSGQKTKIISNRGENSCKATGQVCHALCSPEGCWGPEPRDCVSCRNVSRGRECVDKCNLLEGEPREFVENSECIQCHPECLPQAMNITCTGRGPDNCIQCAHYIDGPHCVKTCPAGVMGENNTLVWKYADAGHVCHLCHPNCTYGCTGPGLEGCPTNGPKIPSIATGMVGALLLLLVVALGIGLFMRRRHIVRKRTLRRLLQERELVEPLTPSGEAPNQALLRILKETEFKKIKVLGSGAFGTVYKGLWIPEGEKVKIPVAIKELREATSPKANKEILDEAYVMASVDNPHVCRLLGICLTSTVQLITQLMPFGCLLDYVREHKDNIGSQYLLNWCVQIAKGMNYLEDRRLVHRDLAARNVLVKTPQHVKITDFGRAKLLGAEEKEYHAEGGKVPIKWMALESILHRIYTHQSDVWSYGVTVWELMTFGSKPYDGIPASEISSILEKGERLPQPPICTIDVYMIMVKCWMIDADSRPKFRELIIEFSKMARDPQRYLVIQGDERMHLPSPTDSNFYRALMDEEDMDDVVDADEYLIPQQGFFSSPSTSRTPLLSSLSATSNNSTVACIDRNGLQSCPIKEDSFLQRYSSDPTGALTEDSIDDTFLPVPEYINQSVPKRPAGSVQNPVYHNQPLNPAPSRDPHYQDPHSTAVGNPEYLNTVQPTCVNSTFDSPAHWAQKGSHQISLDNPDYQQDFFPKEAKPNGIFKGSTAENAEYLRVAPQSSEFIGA

IC50 (EGFR L858R) [nM] | IC50 (EGFR L858R/T790M) [nM] | GI50 [1] [nM] | GI50 [2] [nM] | Structure (SMILES)
> 1000 | > 1000 | ≥ 2500 | ≥ 2500 | C=CC(=O)N1CC[C@H](N2Cc3cnc(Nc4ccc(N5CCN(C)CC5)cc4)nc3N(C)C2=O)[C@H](N)C1 (relative stereo) [Compound 148, rel-(3R,4S)—S-(3-amino-1-prop-2-enoyl-4-piperidyl)-1-methyl-7-[4-(4-methylpiperazin-1-yl)anilino]-4H-pyrimido[4,5-d]pyrimidin-2-one]
> 100 | > 100 | ≥ 2500 | ≥ 2500 | C=CC(=O)N1CC[C@@H](N2Cc3cnc(Nc4cnn(CCO)c4)nc3N(C)C2=O)c2cccc(OC)c21 (single isomer, unassigned) [Compound 117]
> 100 | > 100 | ≥ 2500 | ≥ 2500 | C=C(F)C(=O)N1CC[C@@H](N2Cc3cnc(Nc4cnn(CCO)c4)nc3N(C)C2=O)c2cccc(OC)c21 (single isomer, unassigned) [Compound 119]
> 100 | > 100 | ≥ 2500 | ≥ 2500 | C=C(F)C(=O)N1CC[C@H](N2Cc3cnc(Nc4cnn(CCO)c4)nc3N(C)C2=O)c2cccc(OC)c21 (single isomer, unassigned) [Compound 120]
62.9 | > 100 | ≥ 2500 | ≥ 2500 | C=CC(=O)N1CCC(N2Cc3cnc(Nc4ccc(N5CCN(C)CC5)cc4)nc3N(C)C2=O)c2cccc(OC)c21 (single isomer, unassigned) [Compound 123]
> 100 | > 100 | ≥ 2500 |  | C=CC(=O)N1CCC(N2Cc3cnc(Nc4ccc(N5CCN(C)CC5)cc4)nc3N(C)C2=O)c2cccc(OC)c21 (single isomer, unassigned) [Compound 124]
12.3 | 85.7 | < 100 | 100 to 500 | C=CC(=O)N1CC[C@@H](N2Cc3cnc(Nc4ccc(N5CCN(C)CC5)cc4)nc3N(C)C2=O)c2cccc(O)c21 (single isomer, unassigned) [Compound 155]
0.18 | 1.18 | < 100 | < 100 | C=CC(=O)N1CCC(N2Cc3cnc(Nc4ccc(N5CCN(C)CC5)cc4)nc3N(C)C2=O)c2cccc(O)c21 (single isomer, unassigned) [Compound 156]
> 1000 | > 1000 | ≥ 2500 | ≥ 2500 | C=CC(=O)N1CCC(N2Cc3cnc(Nc4ccc(N5CCN(C)CC5)cc4)nc3N(C)C2=O)[C@@H](N)C1 (stereo in doubt) [Compound 149, rel-(3S,4S)—S-(3-amino-1-prop-2-enoyl-4-piperidyl)-1-methyl-7-[4-(4-methylpiperazin-1-yl)anilino]-4H-pyrimido[4,5-d]pyrimidin-2-one]
> 100 | > 100 | ≥ 2500 | ≥ 2500 | C=C(F)C(=O)N1CCC(N2Cc3cnc(Nc4cnn(CCO)c4)nc3-n3ccnc32)c2ccccc21 (stereo not shown) [001A]
> 100 | > 100 | 100 to 500 | 500 to 2500 | C=CC(=O)N1CC[C@H](N2Cc3cnc(Nc4cnn(CCO)c4)nc3N(C)C2=O)c2cccc(OC)c21 [Compound 118]
> 100 | > 100 | ≥ 2500 | ≥ 2500 | C=CC(=O)N1CCC2(N3Cc4cnc(Nc5ccc(OCCN6CCCC6)cc5)nc4N(C)C3=O)CC2C1 (stereo not drawn) [Compound 121, 1-methyl-S-(3-prop-2-enoyl-S-azabicyclo[4.1.0]heptan-6-yl)-7-[4-(2-pyrrolidin-1-ylethoxy)anilino]-4H-pyrimido[4,5-d]pyrimidin-2-one]
> 100 | > 100 | 100 to 500 | 500 to 2500 | C=CC(=O)N1CCC(n2c(=O)c3cnc(Nc4cnn(CCO)c4)nc3n(C)c2=O)c2ccccc21 (stereo not drawn) [Compound 122, 7-[[1-(2-hydroxyethyl)pyrazol-4-yl]amino]-1-methyl-S-(1-prop-2-enoyl-3,4-dihydro-2H-quinolin-4-yl)pyrimido[4,5-d]pyrimidine-2,4-dione]
> 100 | > 100 | ≥ 2500 | ≥ 2500 | C=CC(=O)N1CCC(C)(N2Cc3cnc(Nc4cnn(CCO)c4)nc3N(C)C2=O)CC1 [Compound 125, 7-[[1-(2-hydroxyethyl)pyrazol-4-yl]amino]-1-methyl-S-(4-methyl-1-prop-2-enoyl-4-piperidyl)-4H-pyrimido[4,5-d]pyrimidin-2-one]
> 100 | > 100 | ≥ 2500 | ≥ 2500 | C=CC(=O)N1CC[C@H](N2Cc3cnc(Nc4cnn(CCO)c4)nc3N(C)C2=O)[C@@H]2CCC[C@@H]21 [Compound 126, 7-[[1-(2-hydroxyethyl)pyrazol-4-yl]amino]-1-methyl-S-(1-prop-2-enoyl-2,3,4,4a, 5,6,7,7a-octahydrocyclopenta[b]pyridin-4-yl)-4H-pyrimido[4,5-d]pyrimidin-2-one]
1.2 | > 700 | < 100 | < 100 | [2H]C1(N2Cc3cnc(Nc4cnn(CCO)c4)nc3N(C)C2=O)CCN(C(=O)C=C)c2ccccc21 (stereo not shown) [Compound 127]
0.9 | > 700 | < 100 | < 100 | [2H]C1(N2Cc3cnc(Nc4ccc(OCCN5CCCC5)cc4)nc3N(C)C2=O)CCN(C(=O)C=C)c2ccccc21 (stereo not shown) [Compound 128]
43 | > 1000 | < 100 | 100 to 500 | [2H]C1(N2Cc3cnc(Nc4ccc(N5CCN(C)CC5)cc4)nc3N(C)C2=O)CCN(C(=O)C=C)c2c(OC)cccc21 (stereo not shown) [Compound 130, 3-(4-deuterio-8-methoxy-1-prop-2-enoyl-2,3-dihydroquinolin-4-yl)-1-methyl-7-[4-(4-methylpiperazin-1-yl)anilino]-4H-pyrimido[4,5-d]pyrimidin-2-one]
> 1000 | > 1000 | 100 to 500 | 100 to 500 | C=CC(=O)N1CCC(N2Cc3cnc(Nc4ccc(N5CCN(C)CC5)cc4)nc3N(C)C2=O)c2cnn(C)c21 (stereo not drawn) [Compound 132, 1-methyl-7-[4-(4-methylpiperazin-1-yl)anilino]-S-(1-methyl-7-prop-2-enoyl-5,6-dihydro-4H-pyrazolo[3,4-b]pyridin-4-yl)-4H-pyrimido[4,5-d]pyrimidin-2-one]
1.13 | 10 | < 100 | < 100 | C=CC(=O)N1CCC(N2Cc3cnc(Nc4ccc(N5CCN(C)CC5)cc4)nc3N(C)C2=O)c2cccc(O)c21 (stereo not shown) [Compound 133]
38.9 | > 1000 | < 100 | 100 to 500 | C=CC(=O)N1CCC(N2Cc3cnc(Nc4ccc(N5CCN(C)CC5)cc4)nc3N(CC(F)F)C2=O)c2cccc(OC)c21 (stereo not shown) [Compound 134, 3-(1-acryloyl-8-methoxy-1,2,3,4-tetrahydroquinolin-4-yl)-1-(2,2-difluoroethyl)-7-((4-(4-methylpiperazin-1-yl)phenyl)amino)-3,4-dihydropyrimido[4,5-d]pyrimidin-2(1H)-one]
 |  | < 100 | < 100 | C=CC(=O)N1CC[C@H](N2Cc3cnc(Nc4ccc5c(c4)CCN(C)C5)nc3N(CCO)C2=O)c2cccc(C)c21 [Compound 154, 1-(2-hydroxyethyl)-7-[(2-methyl-3,4-dihydro-1 H-isoquinolin-6-yl)amino]-S-[(4S)-8-methyl-1-prop-2-enoyl-3,4-dihydro-2H-quinolin-4-yl]-4H-pyrimido[4,5-d]pyrimidin-2-one]
